Data published in patent US7659279B2, “Quinazoline derivatives and their use in the treatment of cancer” (AstraZeneca AB, priority 2003, dated 2010).

What was measured:
EGFR tyrosine kinase = biological target: T1, EGFR tyrosine kinase (Homo sapiens, UniProt P00533); assay: Test (a) protein tyrosine kinase phosphorylation assay, EGFR; format: biochemical; conditions: recombinant intracellular fragment; ATP at Km concentration; read-out: IC50 (nM) Test (a): Inhibition of EGFR tyrosine kinase protein phosphorylation
T1 construct: Recombinant intracellular fragments of EGFR, erbB2 and erbB4; made in house; host or cells: baculovirus/Sf21 insect cells (cleared lysate used)
T1 sequence (P00533 669-1210 limits assumed): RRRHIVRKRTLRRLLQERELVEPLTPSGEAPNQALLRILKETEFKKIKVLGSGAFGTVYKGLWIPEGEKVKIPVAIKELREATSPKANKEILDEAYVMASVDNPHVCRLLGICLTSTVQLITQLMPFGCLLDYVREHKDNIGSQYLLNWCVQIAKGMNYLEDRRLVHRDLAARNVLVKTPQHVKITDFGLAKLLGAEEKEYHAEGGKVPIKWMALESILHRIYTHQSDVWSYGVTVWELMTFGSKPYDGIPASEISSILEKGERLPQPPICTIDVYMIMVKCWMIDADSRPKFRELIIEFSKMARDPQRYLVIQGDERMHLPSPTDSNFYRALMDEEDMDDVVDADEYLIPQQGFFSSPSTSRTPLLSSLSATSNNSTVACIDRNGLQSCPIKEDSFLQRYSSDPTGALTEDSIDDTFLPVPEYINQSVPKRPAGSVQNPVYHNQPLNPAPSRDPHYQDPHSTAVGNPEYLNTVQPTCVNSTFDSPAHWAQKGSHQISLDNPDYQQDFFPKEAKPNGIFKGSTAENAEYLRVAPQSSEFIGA
Protocol: (§1) a) Protein Tyrosine Kinase Phosphorylation Assays
This test measures the ability of a test compound to inhibit the phosphorylation of a tyrosine containing polypeptide substrate by EGFR tyrosine kinase enzyme.
(§2) Recombinant intracellular fragments of EGFR, erbB2 and erbB4 (accession numbers X00588, X03363 and L07868 respectively) were cloned and expressed in the baculovirus/Sf21 system. Lysates were prepared from these cells by treatment with ice-cold lysis buffer (20 mM N-2-hydroxyethylpiperizine-N′-2-ethanesulfonic acid (HEPES) pH7.5, 150 mM NaCl, 10% glycerol, 1% Triton X-100, 1.5 mM MgCl2, 1 mM ethylene glycol-bis(β-aminoethyl ether) N′,N′,N′,N′-tetraacetic acid (EGTA), plus protease inhibitors and then cleared by centrifugation.
(§3) Constitutive kinase activity of the recombinant protein was determined by its ability to phosphorylate a synthetic peptide (made up of a random co-polymer of Glutamic Acid, Alanine and Tyrosine in the ratio of 6:3:1). Specifically, Maxisorb™ 96-well immunoplates were coated with synthetic peptide ([…] of peptide in a 100 μl phosphate buffered saline (PBS) solution and incubated at 4° C. overnight). Plates were washed in PBS-T (phosphate buffered saline with 0.5% Tween 20) then in 50 mM HEPES pH 7.4 at room temperature to remove any excess unbound synthetic peptide. EGFR, ErbB2 or ErbB4 tyrosine kinase activity was assessed by incubation in peptide coated plates for 20 minutes at 22° C. in 100 mM HEPES pH 7.4, adenosine trisphosphate (ATP) at Km concentration for the respective enzyme, 10 mM MnCl2, 0.1 mM Na3VO4, 0.2 mM DL-dithiothreitol (DTT), 0.1% Triton X-100 with test compound in DMSO (final concentration of 2.5%). Reactions were terminated by the removal of the liquid components of the assay followed by washing of the plates with PBS-T.
(§4) The immobilised phospho-peptide product of the reaction was detected by immunological methods. Firstly, plates were incubated for 90 minutes at room temperature with anti-phosphotyrosine primary antibodies that were raised in the mouse (4G10 from Upstate Biotechnology). Following extensive washing, plates were treated with Horseradish Peroxidase ([…]) conjugated sheep anti-mouse secondary antibody (NXA931 from Amersham) for 60 minutes at room temperature. After further washing, HRP activity in each well of the plate was measured […] using 22′-Azino-di-[3-ethylbenzthiazoline sulfonate (6)] diammonium salt crystals (ABTS™ from Roche) as a substrate.
(§5) Quantification of colour development and thus enzyme activity was achieved by the measurement of absorbance at 405 nm on a Molecular Devices ThermoMax microplate reader. Kinase inhibition for a given compound was expressed as an IC50 value. This was determined by calculation of the concentration of compound that was required to give 50% inhibition of phosphorylation in this assay. The range of phosphorylation was calculated from the positive (vehicle plus ATP) and negative (vehicle minus ATP) control values.

erbB2 tyrosine kinase = biological target: T2, erbB2 tyrosine kinase (Homo sapiens, UniProt P04626); assay: Test (a) protein tyrosine kinase phosphorylation assay, erbB2; format: biochemical; conditions: recombinant intracellular fragment; ATP at Km concentration; read-out: IC50 (nM) Test (a): Inhibition of erbB2 tyrosine kinase protein phosphorylation
T2 construct: Recombinant intracellular fragments of EGFR, erbB2 and erbB4; made in house; host or cells: baculovirus/Sf21 insect cells (cleared lysate used)
T2 sequence (P04626 676-1255 limits assumed): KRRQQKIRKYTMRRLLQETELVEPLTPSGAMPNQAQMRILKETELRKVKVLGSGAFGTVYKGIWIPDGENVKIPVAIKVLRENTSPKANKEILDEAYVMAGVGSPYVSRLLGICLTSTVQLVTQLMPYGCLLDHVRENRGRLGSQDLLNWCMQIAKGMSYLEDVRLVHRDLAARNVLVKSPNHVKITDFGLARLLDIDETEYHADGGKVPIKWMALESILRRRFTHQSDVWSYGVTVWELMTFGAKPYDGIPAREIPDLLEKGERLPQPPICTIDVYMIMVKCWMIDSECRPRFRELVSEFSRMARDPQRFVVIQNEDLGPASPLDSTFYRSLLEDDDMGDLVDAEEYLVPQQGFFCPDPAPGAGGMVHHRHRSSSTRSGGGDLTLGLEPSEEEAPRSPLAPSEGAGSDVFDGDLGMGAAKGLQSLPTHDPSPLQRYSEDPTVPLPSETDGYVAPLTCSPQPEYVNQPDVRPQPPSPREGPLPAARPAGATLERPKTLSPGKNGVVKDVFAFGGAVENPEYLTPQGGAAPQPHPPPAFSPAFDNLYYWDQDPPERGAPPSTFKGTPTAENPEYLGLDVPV
Protocol: as §1, §2, §3, §4, §5

[1] = test system: KB cells (human naso-pharangeal carcinoma); assay: Test (b) KB cell proliferation assay; format: cell-based; conditions: 96 h, EGF 1 ng/ml, 4 days, MTT, read-out: IC50 (nM) Test (b): EGFR driven KB cell proliferation assay
Protocol: b) KB Cell Proliferation Assay
This assay measures the ability of a test compound to inhibit the EGF driven proliferation of KB cells (human naso-pharangeal carcinoma obtained from the American Type Culture Collection (ATCC)).
KB cells were cultured in Dulbecco's modified Eagle's medium (DMEM) containing 10% foetal calf serum, 2 mM glutamine and non-essential amino acids at 37° C. in a 7.5% CO2 air incubator. Cells were harvested from the stock flasks using Trypsin/ethylaminediaminetetraacetic acid (EDTA). Cell density was measured using a haemocytometer and viability was calculated using trypan blue solution before being seeded at a density of 1.25×10^3 cells per well of a 96 well plate in DMEM containing 2.5% charcoal stripped serum, 2 mM glutamine and non-essential amino acids at 37° C. in 7.5% CO2 and allowed to settle for 4 hours.
Following adhesion to the plate, the cells are treated with or without EGF (final concentration of 1 ng/ml) and with or without compound at a range of concentrations in dimethylsulfoxide (DMSO) (1% final) in a final volume of 200 μl before incubation for 4 days at 37° C. in 7.5% CO2. Following the incubation period, cell numbers were determined by addition of 50 μl of 3-(4,5-Dimethylthiazol-2-yl)-2,5-diphenyltetrazolium bromide (MTT) (stock 5 mg/ml) and incubated at 37° C. in a 7.5% CO2 air incubator for 2 hours. MTT solution was then removed from the cells by aspiration, which were then allowed to air dry and were dissolved upon the addition of 100 μl of DMSO.
Absorbance of this solubilised cells was read at 540 nm to quantify cell biomass. Inhibition of proliferation was expressed as an IC50 value. This was determined by calculation of the concentration of compound that was required to give 50% inhibition of proliferation. The range of proliferation was calculated from the positive (vehicle plus EGF) and negative (vehicle minus EGF) control values.

Row | Structure (SMILES) | IC50 (EGFR tyrosine kinase) [nM] | IC50 (erbB2 tyrosine kinase) [nM] | IC50 [1] [nM]
1 | COc1cc(OC[C@H]2CCCN2C(=O)CO)c2c(Nc3ccc(F)c(Cl)c3)ncnc2c1 [Example 3, 2-{(2R)-2-[({4-[3-Chloro-4-fluoroanilino]-7-methoxyquinazolin-5-yl}oxy)methyl]pyrrolidin-1-yl}-2-oxoethanol] | 9 | 275 | 91
2 | COc1cc(OC[C@H]2CCCN2C(=O)CN(C)C)c2c(Nc3ccc(F)c(Cl)c3)ncnc2c1 [Example 4] | 39 | 252 | 138
3 | COc1cc(OC[C@H]2CCCN2C(C)=O)c2c(Nc3ccc(F)c(Cl)c3)ncnc2c1 [Example 13, 5-{[(2R)-1-Acetylpyrrolidin-2-yl]methoxy}-N-(3-chloro-4-fluorophenyl)-7-methoxyquinazolin-4-amine] | 1 | 358 | 28
4 | O=C(CO)N1CCC[C@@H]1COc1cc(OCCO)cc2ncnc(Nc3ccc(F)c(Cl)c3)c12 [Example 16, 2-[(2R)-2-({[4-[3-Chloro-4-fluoroanilino]-7-(2-hydroxyethoxy)quinazolin-5-yl]oxy}methyl)pyrrolidin-1-yl]-2-oxoethanol] | 1 | 52 | 128
5 | COc1cc(OC[C@H]2C[C@H](O)CN2C(C)=O)c2c(Nc3ccc(F)c(Cl)c3)ncnc2c1 [Example 22, (3S,5R)-1-Acetyl-5-[({4-[3-chloro-4-fluoroanilino]-7-methoxyquinazolin-5-yl}oxy)methyl]pyrrolidin-3-ol] | 1 | 61 | 75
6 | COCC(=O)N1C[C@@H](O)C[C@@H]1COc1cc(OC)cc2ncnc(Nc3ccc(F)c(Cl)c3)c12 [Example 23, (3S,5R)-5-[({4-[3-Chloro-4-fluoroanilino]-7-methoxyquinazolin-5-yl}oxy)methyl]-1-(methoxyacetyl)pyrrolidin-3-ol] | 56 | 1730 | 288
7 | COc1cc(OC[C@@H]2C[C@H](O)CN2C(=O)CN(C)C)c2c(Nc3ccc(F)c(Cl)c3)ncnc2c1 [Example 31, (3S,5S)-5-[({4-[3-Chloro-4-fluoroanilino]-7-methoxyquinazolin-5-yl}oxy)methyl]-1-(N,N-dimethylglycyl)pyrrolidin-3-ol] | 42 | 532 | 112
8 | COc1cc(OC[C@H]2C[C@@H](O)CN2C(=O)CO)c2c(Nc3ccc(F)c(Cl)c3)ncnc2c1 [Example 32, (3R,5R)-5-[({4-[3-Chloro-4-fluoroanilino]-7-methoxyquinazolin-5-yl}oxy)methyl]-1-glycoloylpyrrolidin-3-ol] | 18 | 215 | 118

Continued by falling IC50 (EGFR tyrosine kinase), values first:

Row | IC50 (EGFR tyrosine kinase) [nM] | IC50 (erbB2 tyrosine kinase) [nM] | IC50 [1] [nM] | Structure (SMILES)
9 | 70 | 1850 | 141 | COc1cc(OC[C@@H]2CCCN2C(=O)CN(C)C)c2c(Nc3ccc(F)c(Cl)c3)ncnc2c1 [Example 2, N-(3-Chloro-4-fluorophenyl)-5-({(2S)-1-[(dimethylamino)acetyl]pyrrolidin-2-yl}methoxy)-7-methoxyquinazolin-4-amine]
10 | 57 | 1630 | 130 | COc1cc(OC[C@@H]2CCCN2C(=O)CN2CCCC2)c2c(Nc3ccc(F)c(Cl)c3)ncnc2c1 [Example 6, N-(3-Chloro-4-fluorophenyl)-7-methoxy-5-{[(2S)-1-(pyrrolidin-1-ylacetyl)pyrrolidin-2-yl]methoxy}quinazolin-4-amine]
11 | 32 | 1910 | 156 | COc1cc(OC[C@@H]2C[C@@H](O)CN2C(=O)CO)c2c(Nc3ccc(F)c(Cl)c3)ncnc2c1 [Example 25, (3R,5S)-5-[({4-[3-Chloro-4-fluoroanilino]-7-methoxyquinazolin-5-yl}oxy)methyl]1-glycoloylpyrrolidin-3-ol]
12 | 8 | 85 | 99 | CCOCCOc1cc(OC[C@H]2CCCN2C(=O)CO)c2c(Nc3ccc(F)c(Cl)c3)ncnc2c1 [Example 18, 2-[(2R)-2-({[4-[3-Chloro-4-fluoroanilino]-7-(2-ethoxyethoxy)quinazolin-5-yl]oxy}methyl)pyrrolidin-1-yl]-2-oxoethanol]
